From patent US11492351B2, “MTA-cooperative PRMT5 inhibitors” (Mirati Therapeutics, Inc., priority 2019, dated 2022)
pIC50: −log10 of the molar value.

Columns and labels:
PRMT5/MEP50 complex [1] = target: T1, PRMT5/MEP50 complex (Homo sapiens (Human), UniProt O14744); test: PRMT5:MEP50 FlashPlate Assay (histone H4 peptide, plus and minus MTA); assay type: biochemical
Method: (§1) The PRMT5 inhibitory activity of compounds of the present invention was determined using either a PRMT5:MEP50 FlashPlate Assay (Reaction Biology Corporation) or a PRMT5:MEP50 HotSpot Assay (Reaction Biology Corporation).
1. PRMT5:MEP50 FlashPlate Assay

PRMT5/MEP50 complex [2] = target: T1, PRMT5/MEP50 complex; test: PRMT5:MEP50 HotSpot Assay (full-length histone H2A, plus and minus MTA); assay type: biochemical
Method: as §1
The assay uses recombinant full-length histone H2A as the PRMT5 substrate. […] The reaction was stopped and transferred to filter paper for detection. The amount of tritiated H2A in each sample was determined using a scintillation counter.

[3] = in the absence of MTA, read-out: IC50
[4] = read-out: IC50 + 2 μM MTA, in the presence of 2 μM MTA

T1 sequence (O14744 whole entry): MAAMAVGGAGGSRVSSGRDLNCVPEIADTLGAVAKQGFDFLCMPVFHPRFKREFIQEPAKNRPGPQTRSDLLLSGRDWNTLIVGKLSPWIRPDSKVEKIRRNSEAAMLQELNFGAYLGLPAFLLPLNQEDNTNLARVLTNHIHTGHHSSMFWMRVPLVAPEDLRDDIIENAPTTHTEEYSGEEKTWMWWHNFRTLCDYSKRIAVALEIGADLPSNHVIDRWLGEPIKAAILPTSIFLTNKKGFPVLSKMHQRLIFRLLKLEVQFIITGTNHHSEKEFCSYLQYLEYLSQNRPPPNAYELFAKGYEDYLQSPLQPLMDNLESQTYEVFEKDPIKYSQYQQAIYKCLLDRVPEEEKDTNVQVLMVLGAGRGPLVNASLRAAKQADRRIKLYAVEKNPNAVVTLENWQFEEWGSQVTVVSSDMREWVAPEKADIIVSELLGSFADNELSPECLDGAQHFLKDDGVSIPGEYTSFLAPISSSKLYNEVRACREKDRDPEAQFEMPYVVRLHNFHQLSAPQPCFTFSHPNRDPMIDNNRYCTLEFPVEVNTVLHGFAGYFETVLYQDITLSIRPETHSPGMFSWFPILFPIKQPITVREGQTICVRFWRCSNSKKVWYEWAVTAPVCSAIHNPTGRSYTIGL
T1 sequence (Q9BQA1 whole entry partner): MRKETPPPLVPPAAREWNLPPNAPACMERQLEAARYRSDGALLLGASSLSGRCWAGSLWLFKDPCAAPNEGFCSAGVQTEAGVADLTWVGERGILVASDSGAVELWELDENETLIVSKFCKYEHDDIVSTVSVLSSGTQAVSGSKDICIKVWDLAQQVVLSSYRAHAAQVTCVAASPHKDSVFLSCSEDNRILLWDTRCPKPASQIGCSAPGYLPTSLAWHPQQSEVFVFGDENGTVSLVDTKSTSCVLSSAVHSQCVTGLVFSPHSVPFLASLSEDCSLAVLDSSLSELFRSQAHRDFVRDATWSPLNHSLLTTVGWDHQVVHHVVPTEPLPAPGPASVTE

Cc1nc2cncc(-c3ccc4c(=O)[nH]nc(CN)c4c3)c2o1 [Example 4-110, 4-(aminomethyl)-6-(2-methyloxazolo[4,5-c]pyridin-7-yl)phthalazin-1(2H)-one]
pIC50 (PRMT5/MEP50 complex [1]; [3]): < 4.00

Cn1ncc(-c2ccc3c(=O)[nH]nc([C@H](N)C(F)F)c3c2)c1-c1ccc2ccccc2c1C#N [Example 9-6, 2-[4-[4-[(1S)-1-amino-2,2-difluoro-ethyl]-1-oxo-2H-phthalazin-6-yl]-2-methyl-pyrazol-3-yl]naphthalene-1-carbonitrile]
pIC50 (PRMT5/MEP50 complex [2]; [4]): < 5.00

Cn1ncc(-c2ccc3c(=O)[nH]nc(CN)c3c2)c1-c1ccccc1C#N [Example 4-100, 2-(4-(4-(aminomethyl)-1-oxo-1,2-dihydrophthalazin-6-yl)-1-methyl-1H-pyrazol-5-yl)benzonitrile]
pIC50 (PRMT5/MEP50 complex [2]; [3]): < 5.00

Cc1cc2c(=O)[nH]nc(CN)c2cc1-c1cncc(C#N)c1 [Example 3-38]
pIC50 (PRMT5/MEP50 complex [1]; [3]): 5.31
pIC50 (PRMT5/MEP50 complex [1]; [4]): 6.43
